# In patent publication US7420060B2, “Benzopyran derivatives substituted with a thioxobenzoxazole derivative, pharmaceutically acceptable salts thereof, their preparations and pharmaceutical compositions containing them” (Schaeffler KG, priority 2003, dated 2008):
# What was measured:
# [1] = tested on: ischemic heart isolated from white rat; assay: Cardioprotective effect on isolated ischemic rat heart (Langendorff, 30 min global ischemia / 30 min reperfusion); settings: 10 μM
# Description: 100 mg/kg of sodium pentobarbital was injected in abdominal cavity of white male rats (300˜450 g, obtained form the experimental animal team of the Korea Research Institute of Chemical Technology) to anesthetize them. Then, an intravenous injection of 1000 U/kg of heparin was performed before taking out heart. Particularly, cannula(PE 240) was inserted in the trachea, and artificial respiration was tried upon the rat by using a rodent ventilator. Under that condition, aortic cannula was inserted in the aorta and heart was taken out under retrograde perfusion. The extracted heart was hung on Langendorff apparatus quickly and unnecessary tissues on heart were removed. Perfusion was induced under static pressure (85 mmHg) with 37° C. modified Krebs-Henseleit bicarbonate buffer (composition <mM/L>: 116 NaCl, 4.7 KCl, 1.1 MgSO4, 1.17 KH2PO4, 24.9 NaHCO3, 2.52 CaCl2, 8.32 Glucose, 2.0 Pyruvate) saturated with 95% O2/5% CO2. A metal cannula, to which a latex balloon filled with an ethanol-distilled water mixture (1:1 vol/vol) was linked, was inserted in left ventricle through pulmonary vein. Then, left ventricular pressure transmitted through the balloon was transduced by using pressure transducer, and amplified by using Plugsys bridge amplifier isovolumetrically. Then, the pressure was recorded in a recorder (Linearcorder mark 8 WR 3500). Thereafter, heart was stabilized for 15 minutes. Then, left ventricular end diastolic pressure (LVEDP) was given by 5 mmHg and such volume of the balloon was kept all through the experiments.
# Baseline cardiac contractile function, heart rate (HR), and coronary flow (CF) were measured. Cardiac contractile function was calculated by […], yielding LVDP (left ventricular developed pressure). Double product RPP (rate-pressure product)(DP), another important parameter for indirectly assessing cardiac performance in Langendorff heart, whose cardiac output could not be measured ordinarily, was calculated by multiplying HR by LVDP. Throughout the experiment, total coronary blood flow was measured by the use of coronary flow probe (diameter: 1.0 mm) installed in aortic cannula with electromagnetic flowmeter. Temperature of heart was steadily maintained by immersing the heart at 37° C. in physiological saline solution to which 95% O2/5% CO2 was constantly supplied. After stabilization for 15 min, the hearts were pre-treated for 10 min with vehicle (0.04% DMSO) only or a compound of the present invention or the control material in the vehicle. Thereafter, cardiac contractile function, HR and CF were repeatedly measured. Global ischemia was induced by completely shutting off the perfusate for 30 min. Severity of ischemia was determined as the time to contracture (TTC, min) during global ischemia in which the first 5 mmHg increase in EDP was observed. Then, the hearts were reperfused and, 30 min later, contractile functions (LVDP, HR and CF) were repeatedly measured. After reperfusion was accomplished for 30 min, LDH (lactate dehydrogenase) was measured with a kit as a sensitive index for loss of cell viability.
# [2] = tested on: ischemic myocardial injury models prepared from white rats; assay: Antiischemic activity in the anesthetized rat ischemic myocardial injury model (coronary occlusion 45 min / reperfusion 90 min); assay type: in vivo; settings: 0.3 mg/kg, intravenous (femoral vein), 30 min before occlusion
# Description: 75 mg/kg of sodium pentobarbital was injected in abdominal cavity of white male rats (350-450 g, Laboratory Animal Division, Korea Research Institute of Chemical Technology) to anesthetize them. After performing tracheotomy, artificial respiration was induced by 10 ml/kg of stroke volume and 60/min. of heart rate. Cannula was inserted in each of vena fermoralis and aorta fermoralis, through which medicines were administered and blood pressure was measured. In the meantime, since body temperature in a ischemic myocardial injury model was very important factor, directly influencing a result, the temperature of a rat was always kept at 37° C. by using a probe for measuring body temperature inserted in rectum and homeothermic blanket control unit. Mean arterial blood pressure and heart rate (HR) of the rat were measured all through the experiments. Statham P23XL pressure transducer (Grass Ins., MA., USA) was used for measuring blood pressure and ECG/RATE Coupler (Hugo Sachs Electronic, Germany) was used for measuring HR. In addition, all the changes were recorded successively by graphtec linearcorder chart recorder (Graphtec Linearcorder WR 3310, Hugo Sachs Electronic).
# According to the method of Selye H, left coronary aorta was occluded as follows. Left thoracotomy was induced. That is, the chest of a rat was a little opened. The right chest of the anesthetized rat was pressurized by the middle finger of left hand, so that the heart was pushed out. The heart was fixed gently by the thumb and the index finger of the left hand. A stitch was carefully put on a part including left anterior descending coronary artery by a suture needle with operating thread (5-0 silk ligature), and the heart was quickly positioned again in thoracic cavity. Then, both ends of operating thread were exposed outside. Both ends of operating thread were passed through PE tube (PE100, 2.5 cm) and left for 20 minutes for stabilization. A vehicle or a medicine was administered through the cannula inserted in femoral vein, which was left for 30 minutes in order for the medicine to work thoroughly. BMS-180448 was used for a control group and the dosage of each test medicine and a control medicine was 0.3 mg/kg each. […]
# The coronary artery was reoccluded according to the above method and 2 ml of 1% Evans blue solution was administered by intravenous injection. […] The surface of each slice was inputted in a computer by using Hi-scope, a compact micro vision system, and Image pro plus program, from which both normal blood flow tissue area stained by blue and non-stained area on each slice were measured. The ratio of non-stained area to the gross area of each slice was calculated, by which the weight of each slice was multiplied to calculate AAR (area at risk) of each slice. […]
compound,measurement,setting,value
"COc1ccc2oc(=S)n([C@H]3c4cc([N+](=O)[O-])ccc4O[C@@](C)(C(OC)OC)[C@@H]3O)c2c1 [Example 10, (2R,3R,4S)-6-nitro-3,4-dihydro-3-hydroxy-2-dimethoxymethyl-2-methyl-4-(5-methoxy-2-thioxobenzoxazol-3-yl)-2H-1-benzopyran]",LDH (concentration of lactate dehydogenase),[1]; after 30 min reperfusion,17.3 unit/g
same,EDP (left ventricular end diastolic pressure),"[1]; after reperfusion, baseline set at 5 mmHg",36.7 mmHg
same,TTC (time to induce contraction / time to contracture),"[1]; during 30 min global ischemia, first 5 mmHg increase in EDP",24.4 min
same,LVDP × HR (left ventricular developed pressure × heart rate),"[1]; reperfusion DP as % of pre-treatment DP, 30 min after reperfusion",54.2%
same,IZ/AAR(%) myocardial infarction size to area at risk,[2],46.6%
